± gives the expanded uncertainty stated by the source.
Assays:
[1] = for mass density: Liquid, Vibrating tube method; for surface tension liquid-gas: Pendant drop shape
[2] = xn = mol fraction of the nth substance listed; details: 298 K; for surface tension liquid-gas: Pendant drop shape; for mass density: 101 kPa, Liquid, Vibrating tube method

CCCCCCCC[N+](C)(CCCCCCCC)CCCCCCCC.O=S(=O)([N-]S(=O)(=O)C(F)(F)F)C(F)(F)F
[1], 101.33 kPa
Details | mass density [kg/m3]
278.15 K | 1119.8 ± 8.8
288.15 K | 1112.2 ± 8.7
298.15 K | 1104.6 ± 8.5
308.15 K | 1097.2 ± 8.4
318.15 K | 1089.6 ± 8.3
328.15 K | 1082.1 ± 8.2

[1]
Details | surface tension liquid-gas [mN/m]
278.75 K | 29.65 ± 0.82
288.15 K | 28.92 ± 0.8
298.15 K | 27.93 ± 0.77
308.15 K | 27.02 ± 0.75
318.15 K | 26.56 ± 0.74
328.15 K | 26.03 ± 0.73

CCCC[n+]1ccn(C)c1.O=S(=O)([N-]S(=O)(=O)C(F)(F)F)C(F)(F)F
[1], 101.33 kPa
Details | mass density [kg/m3]
278.15 K | 1456.1 ± 15
288.15 K | 1446.2 ± 15
298 K | 1436.4 ± 15
298.15 K | 1436.6 ± 15
308.15 K | 1427 ± 14
318.15 K | 1417.4 ± 14
328.15 K | 1407.9 ± 14

[1]
Details | surface tension liquid-gas [mN/m]
278.75 K | 33.8 ± 0.92
288.15 K | 33.37 ± 0.91
298 K | 32.8 ± 0.88
298.15 K | 32.8 ± 0.9
308.15 K | 32.32 ± 0.88
318.15 K | 31.89 ± 0.87
328.15 K | 31.28 ± 0.86

CCn1cc[n+](C)c1.O=S(=O)([N-]S(=O)(=O)C(F)(F)F)C(F)(F)F
[1], 101.33 kPa
Details | mass density [kg/m3]
278.15 K | 1539.1 ± 17
288.15 K | 1528.9 ± 16
298.15 K | 1518.7 ± 16
308.15 K | 1508.7 ± 16
318.15 K | 1498.6 ± 16
328.15 K | 1488.7 ± 16

[1]
Details | surface tension liquid-gas [mN/m]
278.75 K | 37.31 ± 1
288.15 K | 36.58 ± 0.99
298.15 K | 35.71 ± 0.97
308.15 K | 35.17 ± 0.96
318.15 K | 34.68 ± 0.94
328.15 K | 34.25 ± 0.93

CCCC[n+]1ccn(C)c1.O=S(=O)([N-]S(=O)(=O)C(F)(F)F)C(F)(F)F + CCCCO
[2]
Details | mass density [kg/m3] | surface tension liquid-gas [mN/m]
x1 = 0.0941 | 962.2 ± 0.2 | 23.98 ± 0.27
x1 = 0.2025 | 1087.1 ± 0.5 | 23.88 ± 0.29
x1 = 0.2045 | 1089 ± 0.5 | 23.8 ± 0.29
x1 = 0.306 | 1172.6 ± 1.1 | 24.16 ± 0.33
x1 = 0.3064 | 1172.5 ± 1.1 | 24.25 ± 0.33
x1 = 0.3964 | 1230.5 ± 1.8 | 25.17 ± 0.37
x1 = 0.5002 | 1283.6 ± 3 | 26.79 ± 0.45
x1 = 0.5977 | 1323.5 ± 4.5 | 28.32 ± 0.52
x1 = 0.6848 | 1354.8 ± 6.1 | 29.56 ± 0.6
x1 = 0.8016 | 1388.6 ± 8.7 | 30.96 ± 0.7
x1 = 0.8986 | 1413.4 ± 11 | 31.94 ± 0.79
x1 = 1 | 1436.4 ± 14 | 32.8 ± 0.88

CCCC[n+]1ccn(C)c1.O=S(=O)([N-]S(=O)(=O)C(F)(F)F)C(F)(F)F + CCCO
[2]
Details | mass density [kg/m3] | surface tension liquid-gas [mN/m]
x1 = 0.035 | 878.2 ± 0.1 | 23.6 ± 0.26
x1 = 0.131 | 1036.2 ± 0.3 | 24.16 ± 0.28
x1 = 0.202 | 1116.5 ± 0.5 | 24.73 ± 0.3
x1 = 0.296 | 1194.1 ± 1 | 25.77 ± 0.34
x1 = 0.373 | 1243.5 ± 1.7 | 26.47 ± 0.38
x1 = 0.517 | 1311.8 ± 3.4 | 28.6 ± 0.48
x1 = 0.664 | 1361.9 ± 5.8 | 29.89 ± 0.59
x1 = 0.685 | 1368 ± 6.2 | 30.54 ± 0.61
x1 = 0.884 | 1422 ± 11 | 32.49 ± 0.79
x1 = 1 | 1436.4 ± 14 | 32.8 ± 0.88

CCCCCCCCOS(=O)(=O)[O-].CCCCn1cc[n+](C)c1 [1-butyl-3-methylimidazolium octyl sulfate]
[1], 101.33 kPa
Details | mass density [kg/m3]
278.15 K | 1077.3 ± 8.1
288.15 K | 1070.4 ± 8
298.15 K | 1063.8 ± 7.9
308.15 K | 1057.1 ± 7.8
318.15 K | 1050.8 ± 7.7
328.15 K | 1044.3 ± 7.6

[1]
Details | surface tension liquid-gas [mN/m]
278.75 K | 28.08 ± 0.78
288.15 K | 27.29 ± 0.76
298.15 K | 26.71 ± 0.74
308.15 K | 26.27 ± 0.73
318.15 K | 25.72 ± 0.72
328.15 K | 24.99 ± 0.7

CCOS(=O)(=O)[O-].CCn1cc[n+](C)c1 [1-ethyl-3-methylimidazolium ethyl sulfate]
[1], 101.33 kPa
Details | mass density [kg/m3]
278.15 K | 1255.1 ± 11
288.15 K | 1248.1 ± 11
298.15 K | 1241.1 ± 11
308.15 K | 1234.2 ± 11
318.15 K | 1227.3 ± 11
328.15 K | 1220.6 ± 10

[1]
Details | surface tension liquid-gas [mN/m]
278.75 K | 46.7 ± 1.2
288.15 K | 46.04 ± 1.2
298.15 K | 45.43 ± 1.2
308.15 K | 44.72 ± 1.2
318.15 K | 43.74 ± 1.2
328.15 K | 43.37 ± 1.2

CCCCO [butan-1-ol]
Details | surface tension liquid-gas [mN/m]
[1], 298 K | 23.96 ± 0.26

Details | mass density [kg/m3]
[1], 298 K, 101.3 kPa | 805.3 ± 0.2

CCCCO [butan-1-ol] + CCCC[n+]1ccn(C)c1.O=S(=O)([N-]S(=O)(=O)C(F)(F)F)C(F)(F)F
[2], x2 = 0
Details | mass density [kg/m3] | surface tension liquid-gas [mN/m]
– | 805.3 ± 0.2 | 23.96 ± 0.26

CCCC[N+](C)(C)C.O=S(=O)([N-]S(=O)(=O)C(F)(F)F)C(F)(F)F [butyltrimethylammonium bis(trifluoromethylsulfonyl)imide]
[1], 101.33 kPa
Details | mass density [kg/m3]
278.15 K | 1412.3 ± 14
288.15 K | 1403 ± 14
298.15 K | 1394 ± 14
308.15 K | 1385 ± 14
318.15 K | 1376.1 ± 13
328.15 K | 1367.3 ± 13

[1]
Details | surface tension liquid-gas [mN/m]
278.75 K | 33.31 ± 0.91
288.15 K | 33.04 ± 0.9
298.15 K | 32.46 ± 0.89
308.15 K | 32 ± 0.88
318.15 K | 31.21 ± 0.86
328.15 K | 30.64 ± 0.84

CCCO [propan-1-ol]
Details | surface tension liquid-gas [mN/m]
[1], 298 K | 23.34 ± 0.26

Details | mass density [kg/m3]
[1], 298 K, 101.3 kPa | 799 ± 0.2

CCCO [propan-1-ol] + CCCC[n+]1ccn(C)c1.O=S(=O)([N-]S(=O)(=O)C(F)(F)F)C(F)(F)F
[2], x2 = 0
Details | mass density [kg/m3] | surface tension liquid-gas [mN/m]
– | 799 ± 0.2 | 23.34 ± 0.26

Source: the NIST ThermoML archive (doi:10.1021/je700621d)
